Results published in ChEMBL document CHEMBL1938230, “6-Position optimization of tricyclic 4-quinolone-based inhibitors of glycogen synthase kinase-3β: discovery of nitrile derivatives with picomolar potency” (Bioorg Med Chem Lett, 2012).

Assays:
[1] = molecular target: Misshapen-like kinase 1 (Homo sapiens) (UniProt Q8N4C8); assay: Inhibition of human ZC3/MINK in HL-60 cells lysate assessed as reduction of labeling of acyl-phosphate ATP probe at 100 nM; type: cell-free
[2] = molecular target: T1, STE20-related kinase adapter protein alpha (Homo sapiens) (UniProt Q7RTN6); assay: Inhibition of human STLK5 in HL-60 cells lysate assessed as reduction of labeling of acyl-phosphate ATP probe at 100 nM; type: cell-free
T1 sequence (whole entry): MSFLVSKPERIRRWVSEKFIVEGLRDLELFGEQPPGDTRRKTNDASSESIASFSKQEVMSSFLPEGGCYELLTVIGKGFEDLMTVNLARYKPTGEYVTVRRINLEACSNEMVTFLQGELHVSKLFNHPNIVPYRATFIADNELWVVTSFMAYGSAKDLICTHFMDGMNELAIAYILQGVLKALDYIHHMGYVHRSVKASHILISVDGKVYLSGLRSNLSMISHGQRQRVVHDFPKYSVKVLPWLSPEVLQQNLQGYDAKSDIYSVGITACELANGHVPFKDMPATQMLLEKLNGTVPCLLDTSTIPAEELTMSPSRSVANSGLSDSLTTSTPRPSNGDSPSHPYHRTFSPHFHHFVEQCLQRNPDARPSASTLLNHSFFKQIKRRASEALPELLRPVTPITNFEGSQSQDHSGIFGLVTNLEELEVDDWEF

[3] = test system: MAP4K2 (germinal center kinase) (Homo sapiens); assay: Inhibition of human GCK in HL-60 cells lysate assessed as reduction of labeling of acyl-phosphate ATP probe at 100 nM

Misshapen-like kinase 1 (Homo sapiens), sequence (Q8N4C8 whole entry, looked up): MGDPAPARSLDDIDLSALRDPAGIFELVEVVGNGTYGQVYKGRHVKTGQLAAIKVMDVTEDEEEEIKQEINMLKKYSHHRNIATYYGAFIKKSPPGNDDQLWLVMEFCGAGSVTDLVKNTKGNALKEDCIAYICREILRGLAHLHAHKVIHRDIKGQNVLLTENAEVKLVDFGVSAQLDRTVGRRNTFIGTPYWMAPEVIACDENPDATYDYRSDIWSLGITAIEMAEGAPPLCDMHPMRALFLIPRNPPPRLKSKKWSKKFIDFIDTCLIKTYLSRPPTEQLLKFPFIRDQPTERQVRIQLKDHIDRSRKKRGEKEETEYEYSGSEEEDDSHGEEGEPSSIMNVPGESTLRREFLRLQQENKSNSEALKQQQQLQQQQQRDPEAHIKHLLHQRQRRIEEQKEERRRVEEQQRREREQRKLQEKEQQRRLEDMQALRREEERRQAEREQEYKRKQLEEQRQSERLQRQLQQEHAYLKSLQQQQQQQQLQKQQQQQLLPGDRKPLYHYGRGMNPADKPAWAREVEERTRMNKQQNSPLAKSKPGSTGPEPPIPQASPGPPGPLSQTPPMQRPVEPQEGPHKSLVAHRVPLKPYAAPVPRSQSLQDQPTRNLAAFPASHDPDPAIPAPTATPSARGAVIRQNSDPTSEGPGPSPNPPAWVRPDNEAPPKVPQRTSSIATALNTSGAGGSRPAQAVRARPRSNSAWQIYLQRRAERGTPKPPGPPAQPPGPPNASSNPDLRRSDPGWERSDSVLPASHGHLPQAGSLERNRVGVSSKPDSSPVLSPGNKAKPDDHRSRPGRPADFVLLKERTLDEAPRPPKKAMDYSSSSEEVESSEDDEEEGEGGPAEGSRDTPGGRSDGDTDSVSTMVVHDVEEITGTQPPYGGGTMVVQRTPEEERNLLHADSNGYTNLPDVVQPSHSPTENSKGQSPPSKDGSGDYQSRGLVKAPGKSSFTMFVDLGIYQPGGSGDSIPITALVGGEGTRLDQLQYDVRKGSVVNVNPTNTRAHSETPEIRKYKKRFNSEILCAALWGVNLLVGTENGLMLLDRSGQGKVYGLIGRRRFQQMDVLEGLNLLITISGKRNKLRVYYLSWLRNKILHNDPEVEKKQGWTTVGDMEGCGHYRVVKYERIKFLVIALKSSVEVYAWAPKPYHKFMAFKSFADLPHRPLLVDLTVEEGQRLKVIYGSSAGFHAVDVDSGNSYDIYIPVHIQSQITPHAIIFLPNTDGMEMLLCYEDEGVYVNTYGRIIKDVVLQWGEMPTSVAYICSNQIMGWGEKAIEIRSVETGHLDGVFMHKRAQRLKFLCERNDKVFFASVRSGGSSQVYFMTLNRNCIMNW

| inhibition [1] [%] | inhibition [2] [%] | inhibition [3] [%] | Structure (SMILES) |
| --- | --- | --- | --- |
| < 35 | < 35 |  | C[C@H]1COc2c(NCCCc3ccccn3)c(F)c(N)c3c(=O)c(C#N)cn1c23 |
| < 35 | < 35 |  | C[C@H]1COc2c(NCCCn3cccn3)c(F)c(N)c3c(=O)c(C(=O)O)cn1c23 |
| < 35 | < 35 | < 35 | C[C@H]1COc2c(NCCCn3cccn3)c(F)c(N)c3c(=O)c(C#N)cn1c23 |
| < 35 | < 35 | < 35 | C[C@H]1COc2c(NCCCc3ccccn3)c(F)c(N)c3c(=O)c(C(=O)O)cn1c23 |
